Results as given in patent US8227604B2, “Hybrid 2-aminotetralin and aryl-substituted piperazine compounds and their use in altering CNS activity” (Wayne State University, priority 2001, dated 2012).

Legend:
D1 receptor = target: T1, D1 receptor (Homo sapiens, UniProt P21728); assay: Binding affinity at cloned human D1 receptor, [3H]SCH23390 (LHD1 cells)
T1 construct: expressed in transfected cells; host or cells: LHD1 cells
Description: LHD1 cells (human receptor) are grown and prepared as described for the HA7 cells as described hereafter. The final pellet is resuspended at 5 mg protein/80 ml in 50 mM Tris-HCl containing 120 mM of NaCl, 5 mM of KCl, 2 mM of CaCl2, and 1 mM of MgCl2, pH 7.4. To wells containing 100 μl of test drug or buffer and […] of [^3H]SCH 23390 (0.18 nM final conc.), is added 0.8 ml of cell homogenate (0.05 mg protein/well), and the plates are incubated at […] for 60 min. Nonspecific binding is determined with 1 μM of SCH 23390.

D2 receptor [1] = target: T2, D2 receptor (Homo sapiens, UniProt P14416); assay: Binding affinity at cloned human D2 receptor, [3H]YM-09151-2 (CHOp-D2 cells)
T2 construct: expressed in transfected cells
Description: (§1) CHOp-cells (human receptors) are grown to confluence in a minimum essential medium (α MEM) containing 10% fetal calf serum, 0.05% pen-strep, and 600 μg/ml of G418. The cells are scraped from the 100 by 20 mm plates and centrifuged at 500. g for 5 min. The pellet is homogenized by polytron in 50 mM Tris-HCl, pH 7.7, and centrifuged at 27,000·G for 12 min. The pellet is resuspended in 50 mM Tris, D2 at 5 mg protein/ml, D3 at 1 mg protein/ml, and stored at −70° C. in 1-ml aliquots.
(§2) On the day of the experiment, CHOp-D2 or CHOp-D3 cells are thawed, resuspended in 50 mM Tris, and centrifuged at 27,000·G for 12 min. The pellet is then resuspended at 5 mg protein/80 ml (D2) and 1 mg protein/80 ml (D3) in 50 mM Tris containing 120 mM of NaCl, 5 mM of KCl, 1.5 mM of CaCl2, 4 mM of MgCl2, and 1 mM of EDTA, pH 7.4. […] Nonspecific binding is determined with 1 mM of chlorpromazine. The plates are incubated at 25° C. for 60 min before filtration and counted as usual. The filters are soaked in 0.1% PEI before filtering.

5HT1A receptor = target: T3, 5HT1A receptor (Homo sapiens, UniProt P08908); assay: Binding affinity at cloned human 5HT1A receptor, [3H]8-OH-DPAT (HA7 cells)
T3 construct: expressed in transfected cells; host or cells: HA7 cells
T3 sequence (P08908 1-422): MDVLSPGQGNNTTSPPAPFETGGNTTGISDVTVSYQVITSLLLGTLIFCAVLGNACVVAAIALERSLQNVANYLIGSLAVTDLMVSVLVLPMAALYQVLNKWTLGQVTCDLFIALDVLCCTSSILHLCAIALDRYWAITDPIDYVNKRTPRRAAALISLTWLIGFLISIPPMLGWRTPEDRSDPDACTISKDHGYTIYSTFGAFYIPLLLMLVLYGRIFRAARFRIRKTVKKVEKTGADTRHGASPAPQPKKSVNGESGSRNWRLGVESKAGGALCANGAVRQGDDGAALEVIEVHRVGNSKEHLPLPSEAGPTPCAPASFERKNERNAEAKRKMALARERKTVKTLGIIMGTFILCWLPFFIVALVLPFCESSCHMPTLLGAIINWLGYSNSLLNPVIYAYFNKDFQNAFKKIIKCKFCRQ
Description: HA7 cells (human receptor) are grown to confluence in DMEM containing 10% fetal calf serum, 0.05% penicillin-streptomycin (pen-strep), and […] of G418. The cells are scraped from the 100 by 20 mm plates and centrifuged at 500·G for 5 min. The pellet is homogenized in 50 mM Tris-HCl, pH 7.7, with a polytron, centrifuged at 27,000·G and resuspended at 10 mg protein/ml in the same buffer. The homogenate is then stored at −70° C. in 1-ml aliquots.
The thawed cells are washed once and resuspended at 10 mg protein/80 ml in 25 mM Tris-HCl containing 100 μM of ascorbic acid and 10 mM of nialamide at pH 7.4. The assay is performed in triplicate in a 96-well plate. To 100 μl of [^3H]8-OH-DPAT (0.5 nM final conc), […] of test compound or buffer and 0.8 ml of cell homogenate (0.1 mg protein/well) is added to each well by a Tomtec Quadra 96. Nonspecific binding is defined using 1 μM dihydroergotamine. The plates are incubated at 25° C. for 60 min, then filtered. The incubation is terminated by rapid filtration through glass fiber filter paper on a Tomtec cell harvester. The filters are washed four times with ice-cold 50 mM Tris-HCl, pH 7.7, dried overnight, bagged with 10 ml scintillation cocktail before counting for 2 min. on a Wallac Betaplate 1205 liquid scintillation counter.

5HT2A receptor = target: T4, 5HT2A receptor (Homo sapiens, UniProt P28223); assay: Binding affinity at cloned human 5HT2A receptor, [3H]Ketanserin
T4 construct: expressed in transfected cells

5HT2C receptor = target: T5, 5HT2C receptor (Homo sapiens, UniProt P28335); assay: Binding affinity at cloned human 5HT2C receptor, [3H]Mesulergine
T5 construct: expressed in transfected cells
T5 sequence (P28335 33-458): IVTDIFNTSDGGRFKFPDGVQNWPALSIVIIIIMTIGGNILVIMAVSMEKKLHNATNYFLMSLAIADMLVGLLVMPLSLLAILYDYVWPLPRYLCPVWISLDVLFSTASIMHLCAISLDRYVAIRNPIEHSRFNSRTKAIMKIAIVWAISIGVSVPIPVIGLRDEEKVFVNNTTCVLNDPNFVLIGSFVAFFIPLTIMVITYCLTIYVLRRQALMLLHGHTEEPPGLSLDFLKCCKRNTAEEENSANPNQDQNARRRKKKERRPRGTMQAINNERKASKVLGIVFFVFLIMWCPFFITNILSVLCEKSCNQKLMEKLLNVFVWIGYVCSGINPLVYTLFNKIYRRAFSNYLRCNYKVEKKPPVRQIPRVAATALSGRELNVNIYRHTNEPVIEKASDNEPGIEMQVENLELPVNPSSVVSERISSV

D2 receptor [2] = target: T2, D2 receptor; assay: Agonist potency by [3H]thymidine incorporation (mitogenesis), D2; assay type: cell-based; conditions: [3H]thymidine incorporation; for Emax: >80% full agonist, read-out: D2 % Maxm Stim
Description: (§3) Potential as domaminergenic agonists was assayed by ^3H-thymidine incorporation by standard techniques.
(§4) The EC50 values thus indicate intrinsic activities or functional activities of these compounds. The value of % maximum stimulation indicates whether a compound is a partial agonist or full agonist. Generally, a value greater than 80% is considered as a full agonist and anything less than 80% is considered as a partial agonist.

D2L receptor = target: T6, D2L receptor (Homo sapiens, UniProt P14416); assay: Inhibition constants for binding to cloned D2L receptor expressed in HEK cells, [3H]spiperone
T6 construct: expressed in transfected cells; host or cells: HEK cells
Description: (§5) Inhibition constants for binding to cloned D2L and D3 receptors expressed in HEK cells by displacing [^3H] spiperone were measured for several compounds.

D3 receptor [3] = target: T7, D3 receptor (Homo sapiens, UniProt P35462); assay: Inhibition constants for binding to cloned D3 receptor expressed in HEK cells, [3H]spiperone; conditions: D3 expressed in HEK cells
Description: as §5

D3 receptor [4] = target: T7, D3 receptor; assay: Binding affinity at cloned human D3 receptor, [3H]YM-09151-2 (CHOp-D3 cells); set-up: expressed in transfected cells; host or cells: CHOp-D3 cells; conditions: for Ki: cloned human D3; for D2/D3: ratio of Ki D2 to Ki D3, [3H]YM-09151-2 protocol of Table 4
Description: as §1, §2

D3 receptor [5] = target: T7, D3 receptor; assay: Agonist potency by [3H]thymidine incorporation (mitogenesis), D3; assay type: cell-based; set-up: expressed in transfected cells; host or cells: CHOp-D3 cells; conditions: [3H]thymidine incorporation; for Emax: >80% full agonist, read-out: D3 % Maxm Stim
Description: as §3, §4

D2 receptor [6] = target: T2, D2 receptor; assay: Binding affinity at cloned human D2 receptor, [3H]Spiperone (Table 5); conditions: for Ki: cloned human D2, Table 5; for affinity for the D2 receptor: Table 5
D3 receptor [7] = target: T7, D3 receptor; assay: Binding affinity at cloned human D3 receptor, [3H]Spiperone (Table 5); set-up: expressed in transfected cells; host or cells: CHOp-D3 cells; conditions: for Ki: cloned human D3, Table 5; for activity at the D3 receptor: Table 5

T7 sequence (P35462 whole entry): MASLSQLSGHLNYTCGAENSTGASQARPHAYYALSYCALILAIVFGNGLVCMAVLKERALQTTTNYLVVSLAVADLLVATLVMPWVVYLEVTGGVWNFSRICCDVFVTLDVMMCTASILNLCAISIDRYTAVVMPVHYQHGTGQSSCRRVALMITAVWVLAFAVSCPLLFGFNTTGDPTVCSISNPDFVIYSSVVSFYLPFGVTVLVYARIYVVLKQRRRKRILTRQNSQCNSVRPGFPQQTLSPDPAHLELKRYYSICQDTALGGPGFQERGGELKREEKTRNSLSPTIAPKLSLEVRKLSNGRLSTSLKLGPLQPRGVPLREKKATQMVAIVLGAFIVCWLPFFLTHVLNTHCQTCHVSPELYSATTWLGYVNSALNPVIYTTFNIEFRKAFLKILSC
T6 sequence (P14416 whole entry): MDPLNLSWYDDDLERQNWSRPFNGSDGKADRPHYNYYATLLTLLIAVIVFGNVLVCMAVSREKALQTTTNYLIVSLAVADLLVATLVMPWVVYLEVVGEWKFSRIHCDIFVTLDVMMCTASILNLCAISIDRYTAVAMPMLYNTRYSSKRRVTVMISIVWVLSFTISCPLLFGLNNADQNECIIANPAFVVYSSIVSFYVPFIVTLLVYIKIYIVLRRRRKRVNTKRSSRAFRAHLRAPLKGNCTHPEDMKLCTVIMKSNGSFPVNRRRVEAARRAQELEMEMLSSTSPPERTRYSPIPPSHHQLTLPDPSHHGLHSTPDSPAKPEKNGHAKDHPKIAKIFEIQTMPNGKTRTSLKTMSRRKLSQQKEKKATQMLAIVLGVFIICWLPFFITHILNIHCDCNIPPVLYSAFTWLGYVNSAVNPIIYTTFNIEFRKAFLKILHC
T2 sequence (P14416 whole entry): as above
T1 sequence (P21728 whole entry): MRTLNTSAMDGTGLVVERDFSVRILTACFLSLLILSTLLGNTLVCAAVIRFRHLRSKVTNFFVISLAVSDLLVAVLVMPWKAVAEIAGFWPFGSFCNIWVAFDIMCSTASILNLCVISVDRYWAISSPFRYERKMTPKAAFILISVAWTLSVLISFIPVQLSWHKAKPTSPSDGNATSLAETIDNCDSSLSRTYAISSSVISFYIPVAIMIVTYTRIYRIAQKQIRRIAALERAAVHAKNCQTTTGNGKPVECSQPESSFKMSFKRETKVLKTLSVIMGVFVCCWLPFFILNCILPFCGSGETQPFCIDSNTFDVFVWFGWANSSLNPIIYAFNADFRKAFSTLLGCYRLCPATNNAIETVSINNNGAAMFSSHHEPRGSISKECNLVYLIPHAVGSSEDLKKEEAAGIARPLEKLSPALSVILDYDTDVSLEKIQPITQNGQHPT
T4 sequence (P28223 whole entry): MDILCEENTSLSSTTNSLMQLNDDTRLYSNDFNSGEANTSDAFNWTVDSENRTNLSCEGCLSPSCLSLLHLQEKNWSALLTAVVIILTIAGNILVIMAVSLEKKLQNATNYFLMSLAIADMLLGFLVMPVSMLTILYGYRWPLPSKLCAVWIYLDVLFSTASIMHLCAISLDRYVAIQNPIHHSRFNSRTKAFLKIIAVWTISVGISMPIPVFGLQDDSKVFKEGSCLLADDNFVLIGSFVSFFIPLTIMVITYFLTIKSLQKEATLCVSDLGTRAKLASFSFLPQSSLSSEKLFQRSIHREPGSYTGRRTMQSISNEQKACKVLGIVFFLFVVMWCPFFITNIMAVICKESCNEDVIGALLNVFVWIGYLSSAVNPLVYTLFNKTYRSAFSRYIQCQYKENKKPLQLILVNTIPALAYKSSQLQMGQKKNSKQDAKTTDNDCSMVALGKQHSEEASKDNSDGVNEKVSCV

SMILES | Ki (D1 receptor) | Ki (D2 receptor [1]) | Ki (5HT1A receptor) | Ki (5HT2A receptor) | Ki (5HT2C receptor) | EC50 (D2 receptor [2]) | Emax (D2 receptor [2]) | Ki (D2L receptor) | Ki (D3 receptor [3]) | Ki (D3 receptor [4]) | D2/D3 (D3 receptor [4]) | EC50 (D3 receptor [5]) | Emax (D3 receptor [5]) | Ki (D2 receptor [6]) | Ki (D3 receptor [7]) | affinity for the D2 receptor (D2 receptor [6]) | activity at the D3 receptor (D3 receptor [7]) | selectivity for D3 relative to the standard 7-OH-DPAT (D3 receptor [4]; protocol used in Table 4)
CCCN(CCCCN1CCN(c2cccc(Cl)c2Cl)CC1)C1CCc2ccc(O)cc2C1 (centres unmarked) [Compound 19a, 7-Hydroxy-2-[N-propyl-(N-(4-(2,3-dichlorophenyl)-piperazin-1-yl)-butyl)amino]tetralin] | 4060 nM | 31.5 nM | 40.6 nM | 356 nM | 639 nM | 8.31 ± 0.69 nM | 80.1 ± 8.15% | 8.78 ± 0.81 nM | 2.26 ± 0.5 nM | 2.66 nM | 15 | 6.49 ± 2.46 nM | 85.7 ± 1.19% |  |  |  |  | 
CCCN(CCc1cccc(NS(=O)(=O)c2ccc(Cl)cc2)c1)CCN1CCN(c2ccccc2)CC1 [Compound 30b, 4-Chloro-N-[3-(2-{[2-(4-phenyl-piperazin-1-yl)-ethyl]-propyl-amino}-ethyl)-phenyl]-benzenesulfonamide] |  |  |  |  |  |  |  |  |  |  |  |  |  | 552 ± 31 nM | 36.8 ± 5.4 nM |  |  | 
C#CCN(CCCCN1CCN(c2cccc(Cl)c2Cl)CC1)C1CCc2ccc(O)cc2C1 (centres unmarked) [Compound 19b, 7-Hydroxy-2-[N-propargyl-(N-(4-(2,3-dichlorophenyl)-piperazin-1-yl)-butyl)amino]tetralin] | 1720 nM | 28.1 nM | 64.4 nM | 160 nM | 264 nM | 11.8 ± 1.84 nM | 85.7 ± 9.15% | 7.37 ± 0.27 nM | 3.59 ± 0.58 nM | 12.7 nM | 2.3 | 3.08 ± 1.09 nM | 90.3 ± 15.5% |  |  |  |  | 
C#CCN(CCN1CCN(c2ccccc2)CC1)C1CCc2ccc(O)cc2C1 (centres unmarked) [Compound 12a, 7-Hydroxy-1-2-[N-propargyl-(N-(4-phenylpiperazin-1-yl)-ethyl)amino]tetralin] | 663 nM | 65.5 nM | 27.6 nM | 161 nM | 2690 nM | 6.18 ± 0.18 nM | 87.2 ± 2.16% | 245 ± 26 nM | 14.2 ± 1.7 nM | 23.5 nM | 2.8 | 1.25 ± 0.08 nM | 94.5 ± 6.17% |  |  |  |  | 
CCCN(CCN1CCN(c2ccccc2)CC1)C1CCc2ccc(O)cc2C1 (centres unmarked) [Compound 15a, 7-Hydroxy-2-[N-propyl-(N-(4-phenylpiperazin-1-yl)-ethyl)amino]tetralin] | > 10000 nM | 75.5 nM | 21.4 nM | 1540 nM | > 10000 nM | 1.59 ± 0.06 nM | 105 ± 11.3% | 213 ± 26 nM | 1.75 ± 0.34 nM | 3.2 nM | 25 | 0.97 ± 0.02 nM | 84.6 ± 10.8% |  |  |  |  | more than two fold

Next, values leading:

Ki (D1 receptor) | Ki (D2 receptor [1]) | Ki (5HT1A receptor) | Ki (5HT2A receptor) | Ki (5HT2C receptor) | EC50 (D2 receptor [2]) | Emax (D2 receptor [2]) | Ki (D2L receptor) | Ki (D3 receptor [3]) | Ki (D3 receptor [4]) | D2/D3 (D3 receptor [4]) | EC50 (D3 receptor [5]) | Emax (D3 receptor [5]) | Ki (D2 receptor [6]) | Ki (D3 receptor [7]) | affinity for the D2 receptor (D2 receptor [6]) | activity at the D3 receptor (D3 receptor [7]) | selectivity for D3 relative to the standard 7-OH-DPAT (D3 receptor [4]; protocol used in Table 4) | SMILES
 |  |  |  |  |  |  |  |  |  |  |  |  | 25600 nM | 1150 nM | exceptionally low affinity | some activity |  | CCCN(CCc1ccc(N)cc1)CCN1CCN(c2ccccc2)CC1 [Compound 29a, 4-(2-{[2-(4-Phenyl-piperazin-1-yl)-ethyl]-propyl-amino}-ethyl)-phenylamine]
 |  |  |  |  |  |  |  |  |  |  |  |  | 23500 nM | 1480 nM | exceptionally low affinity | some activity |  | CCCN(CCc1cccc(N)c1)CCN1CCN(c2ccccc2)CC1 [Compound 29b, 3-(2-{[2-(4-Phenyl-piperazin-1-yl)-ethyl]-propyl-amino}-ethyl)-phenylamine]
 |  |  |  |  |  |  |  |  |  |  |  |  | 702 ± 22 nM | 5.98 ± 0.7 nM |  |  |  | CCCN(CCc1ccc(NS(=O)(=O)c2ccc(Cl)cc2)cc1)CCN1CCN(c2ccccc2)CC1 [Compound 30a, 4-Chloro-N-[4-(2-{[2-(4-phenyl-piperazin-1-yl)-ethyl]-propyl-amino}-ethyl)-phenyl]-benzenesulfonamide]
